Read-outs that look alike come from different tables or passages of the source. Where only a bound is given, the exact number is not on record here.

Assay [1] deals with passively sensitized Rat Mast Cells. Kind of assay: Rat Mast Cell (RMC) test: inhibition of histamine release from passively sensitized Rat Mast Cells. In kind it is cell-based. The conditions noted are these: for RMC % inh.: at 50 μm (number in parentheses); for IC50: Mast cell, histamine release, passively sensitized rat mast cells, read-out: I50 value in the RMC test. From the text: In addition, the compounds of this invention have potent activity as inhibitors of histamine release from passively sensitized Rat Mast Cells according to the porcedure described by E. Kusner, et al., Journal of Pharmacology and Experimental Therapeutics, 184, 41 (1973).

Assay [2] relates to Rat Passive Cutaneous Anaphylaxis. In words: Rat Passive Cutaneous Anaphylaxis (PCA) Screen: inhibition of wheal formation. Particulars: for ED50: Rattus norvegicus; for inhibition of wheal formation in the PCA test: 10 mg/kg, intraperitoneal. In kind it is in vivo. From the text: The compounds of this invention have potent activity in inhibiting the formation of a wheel when screened according to the Rat Passive Cutaneous Anaphylaxis (PCA) Screen as described by I. Mota, Life Sciences, 7, 465 (1963) and Z. Ovary, et al. Proceedings of Society of Experimental Biology and Medicine, 81, 584 (1952).

Where [3] appears, read: PO, 125 mg/kg (number in parentheses).
The mark [4] stands for this setting: PO, 25 mg/kg (number in parentheses).

As to `CC(C(=O)n1c(=O)oc2c3ncccc3c(Cl)cc21)c1ccccc1` (centres unmarked) [Example 23], the RMC % inh. in assay [1] is reported as 16%. Further, the “PCA % inh. IP” value in assay [2] (IP, 125 mg/kg (number in parentheses)) worked out at 34%.

`Cn1c(=O)oc2c3ncccc3c(Cl)cc21` [Example 25, 5-Chloro-3-methyl-2-oxo-3H-oxazolo[4,5-h]quinoline]: the RMC % inh. in assay [1] amounted to 0%. The “PCA % inh. PO” value in assay [2] (setting [3]) is given as 51%.

Regarding `CC(=O)n1c(=O)oc2c3ncccc3ccc21` [Example 20, 3-Acetyl-2-oxo-3H-oxazolo[4,5-h]quinoline], the RMC % inh. in assay [1] is 18%. The “PCA % inh. PO” value in assay [2] (setting [3]) came to 14%.

Take `COc1cccc(C(=O)n2c(=O)oc3c4ncccc4c(Cl)cc32)c1` [Example 22]: the “PCA % inh. PO” value in assay [2] (PO, 100 mg/kg (number in parentheses)) was 43%.

`O=c1[nH]c2ccc3cccnc3c2o1` [Example 18, 2-Oxo-3H-oxazolo[4,5-h]quinoline]: the RMC % inh. in assay [1] is under 30%. Besides, the ED50 worked out at 10 mg/kg in assay [2] (IP, Table I, read-out: PCA ED50 IP) and 4 mg/kg in assay [2] (PO, Table I, read-out: PCA ED50 PO).

Turning to `O=c1[nH]c2cc(Cl)c3cccnc3c2o1` [Example 19], the “PCA % inh. PO” value in assay [2] (setting [4]) was 0%.

Take `COC(=O)c1nc2cc(Cl)c3cccnc3c2o1` [Example 1C, 2-Carbomethoxy-5-chloro-1,3-oxazolo-[4,5-h]quinoline]: in assay [1], the IC50 was 0.3 µM. Further, the ED50 stood at 0.5 mg/kg in assay [2] (ip, intraperitoneal route, read-out: E50 value in PCA test) and 1 mg/kg in assay [2] (oral route, read-out: E50 value in PCA test).

With `CN(C)C(=O)n1c(=O)oc2c3ncccc3c(Cl)cc21` [Example 24], in assay [1], the RMC % inh. is recorded as 18%. Also, in assay [2] (setting [4]), the “PCA % inh. PO” value was found to be 0%.

For the compound `CCOC(=O)c1nc2cc(Cl)c3cccnc3c2o1` [Example 4, 2-carboethoxy-5-chloro-1,3-oxazolo-[4,5-h]quinoline], the IC50 in assay [1] is 0.1 µM. The “inhibition of wheal formation in the PCA test” value in assay [2] was determined as 59%.

For the compound `O=C([O-])c1nc2cc(Cl)c3cccnc3c2o1.[Na+]` [Example 14, 5-chloro-1,3-oxazolo-[4,5-h]quinoline-2-carboxylate, sodium salt], the IC50 in assay [1] turned out to be 0.1 µM. In addition, the “inhibition of wheal formation in the PCA test” value in assay [2] is on record as 51%.

The values are drawn from patent US4563463A, “2-Oxo-1,3-oxazolo[4,5-h] quinolines useful as anti-allergy agents” (priority 1984, dated 1986).
